Reference: US20090099103A1, “COMBINATIONS OF THERAPEUTIC AGENTS FOR TREATING CANCER” (NOVARTIS AG., priority 2006, published 2009)

System: A549 cells
Experiment: Combination dose-matrix cell viability assay (CellTiter-Blue / alamar blue), A549
Type: cell-based
Details: in the presence of increasing concentrations of cladribine
Source text: The inhibition ranges from 0% at the untreated level to 100% when T=0.
This effectively calculates a volume between the measured and Loewe additive response surfaces, weighted towards high inhibition and corrected for varying dilution factors.

For CCN1CCN(Cc2ccc(-c3cc4c(N[C@H](C)c5ccccc5)ncnc4[nH]3)cc2)CC1 [{6-[4-(4-ethyl-piperazin-1-ylmethyl)-phenyl]-7H-pyrrolo[2,3-d]pyrimidin-4-yl]-((R)-1-phenyl-ethyl)-amine], the “change in potency of the Erb-B/VEGF inhibitor” value was “significant increase in the potency”.
